We go through four compounds from patent US11986477B2, “Drug combination and use for treating tumors” (INXMED (NANJING) CO., LTD., priority 2022, dated 2024).

One series concerns lung cancer KPL cells. Nature of the series: Lung cancer KPL cells incubated with drug for 48 hours, observed under microscope. As to conditions: 48 h incubation; IN10018 10 μM, AZD9291 10 μM, Almonertinib 4.7 μM, Alflutinib 4.7 μM, single or combined. It counts as cell-based.
Series [1] concerns mouse colon cancer CT-26 cells. Kind of series: In vivo antitumor efficacy, subcutaneous allograft tumor model of colon cancer CT-26 cells in BALB/c mice. As to conditions: for Tumor volume on day 0: baseline at grouping, mean ± standard error, n=6; for TGI: day 15, vs control group; for TGI / Tumor volume on day 15: IN10018 25 mg/kg, combination 20+25 mg/kg, p.o. QD; for Tumor volume on day 15: day 15 after administration by groups. The method, then: […] incubator. The cells were passaged by routine digestion with trypsin-EDTA two to three times a week. When the cells were in the exponential growth phase with […] saturation, the cells were harvested, counted and inoculated.
0.1 mL of a cell suspension containing 3×10^5 cells was inoculated subcutaneously into the right back of each mouse. When the tumor volume reached ˜59 mm^3 (on day 12 after cell inoculation), the mice were randomized into groups for administration according to the tumor volume, and the grouping information is shown in Table 2.
The tumor diameter was measured with a vernier caliper three times a week. The tumor volume was calculated by the formula: V=0.5×a×b^2, where a and b indicated the long and short diameter of the tumor, respectively.
Statistical analysis was performed based on tumor volume and tumor weight at the end of the trial using Prism Graphpad software. Comparisons among multiple groups were analyzed using Two-way ANOVA, Fisher's LSD test method. P<0.05 was considered a significant difference.

Series [2] has as its system human non-small cell lung cancer HCC827 cells. Nature of the series: In vivo antitumor efficacy, BALB/c-nude mouse subcutaneous xenograft tumor model of HCC827 cells. As to conditions: for tumor growth inhibition compared with the blank control group / TGI / Tumor volume on day 32 / Tumor volume on day 37: AZD9291 3 mg/kg, IN10018 25 mg/kg, combination 3+25 mg/kg; for tumor growth inhibition compared with the blank control group: statistical difference from control; for Tumor volume on day 0: baseline at grouping, n=5; for Tumor volume on day 0 / Tumor volume on day 32 / Tumor volume on day 37: mean ± SD; for TGI: day 32, vs control group; for TGI / Tumor volume on day 32 / Tumor volume on day 37: PO QD; for Tumor volume on day 32: day 32 after administration by groups; for Tumor volume on day 37: day 37 after administration by groups. Here is the method: 5% CO2 incubator. The cells were passaged by routine digestion with trypsin-EDTA two to three times a week. When the cells were in the exponential growth phase with 80%-90% saturation, the cells were harvested, counted and inoculated. 0.1 mL of a cell suspension containing 5×10^6 cells was inoculated subcutaneously into the right back of each mouse.
The experiment criteria was to investigate whether the tumor growth was inhibited, delayed or cured. Tumor diameter was measured three times a week using vernier calipers. Tumor volume was calculated according to the following formula: V=0.5×a×b^2, where a and b indicated the long diameter and short diameter of the tumor, respectively.
The tumor suppressive efficacy of the compounds was evaluated by TGI (%), which reflects the tumor growth inhibition rate.
Statistical analysis was performed based on tumor volume at the end of the trial using Prism Graphpad software. Comparisons among multiple groups were analyzed using Two-way ANOVA, Fisher's LSD test method, and P<0.05 was considered a significant difference. Comparisons between the two groups were analyzed using the t-test, Mann Whitney test method test, and P<0.05 was considered a significant difference.

Series [3] can be described thus: Body weight and survival of HCC827 tumor-bearing BALB/c-nude mice during dosing. It counts as in vivo. Here is the method:
The use and welfare of laboratory animals were in accordance with the AAALAC regulations. Animals were monitored daily for health and death. Routine examinations included observation of tumor growth and the effects of drug treatment on the animals' daily behavior such as behavioral activities, food and water intake (visual inspection only), weight changes, appearance signs or other abnormalities. Animal deaths and side effects in each group were recorded based on the number of animals in each group.
The assay was carried out according to the dosing regimen, during which the animals were observed daily for feeding and drinking, and their body weights were recorded three times a week.

Each structure is given as a SMILES string. “And” between values parts separate entries of the source, which are not always exact repeats. Equal values may be shown once.

Consider `C=CC(=O)Nc1cc(Nc2nccc(-c3cn(C4CC4)c4ccccc34)n2)c(OC)cc1N(C)CCN(C)C` [Almonertinib], for which the “cell status observed under microscope” value in the series on lung cancer KPL cells was “poor cell status”.

For `COc1cc(C(=O)NC2CCN(C)CC2)c(F)cc1Nc1ncc(C(F)(F)F)c(Oc2cccc3c2C(=O)N(C)C3)n1` [IN10018], the “Tumor volume on day 0” value in series [1] is given as 39.2 ± 17.9 mm^3. Also, in series [1] (AZD9291 20 mg/kg), the TGI was −14.5% and the “Tumor volume on day 15” value was found to be 1766.9±732.5 mm^3. For the same compound, in series [2], the “tumor growth inhibition compared with the blank control group” value is “obvious tumor growth inhibition”, the “Tumor volume on day 0” value is recorded as 147.7 ± 56.3 mm^3, the TGI is on record as 104.1% and the “Tumor volume on day 32” value was found to be 79.2±51.8 mm^3. Moreover, the “Tumor volume on day 37” value in series [2] is recorded as 69.6±46.6 mm^3. Besides, in the series with lung cancer KPL cells, the “cell status observed under microscope” value is “better cell status”.

Take `C=CC(=O)Nc1cc(Nc2nccc(-c3cn(C)c4ccccc34)n2)c(OCC(F)(F)F)nc1N(C)CCN(C)C` [Alflutinib]: the “cell status observed under microscope” value in the series on lung cancer KPL cells is on record as “poor cell status”.

For `C=CC(=O)Nc1cc(Nc2nccc(-c3cn(C)c4ccccc34)n2)c(OC)cc1N(C)CCN(C)C` [AZD9291, Osimertinib], the “tumor growth inhibition compared with the blank control group” value in series [1] (AZD9291 20 mg/kg, AZD9291+IN10018 20+25 mg/kg, statistical difference from control) was “obvious tumor growth inhibition”. The “Tumor volume on day 0” value in series [1] came out at 37.9 ± 12.9 mm^3. In addition, in series [1] (AZD9291 20 mg/kg), the TGI is given as 33.2% and the “Tumor volume on day 15” value is recorded as 1046.3±407.8 mm^3. Besides, the “Body weight on day 0” value in series [3] (baseline, day of administration by groups, mean ± SD) is 19.9 g and 19.9 ± 0.9 g. Moreover, the “Body weight on day 37” value in series [3] (day 37, AZD9291 3 mg/kg, IN10018 25 mg/kg, combination 3+25 mg/kg PO QD, mean ± SD) was 19.4 g and 19.4 ± 1.4 g. Moreover, the “Rate of change in body weight” value in series [3] (day 37 vs day 0, AZD9291 3 mg/kg, IN10018 25 mg/kg, combination 3+25 mg/kg) is −2.2%. Further, the “Animal Survival” value in series [3] (number of animals surviving on day 0/after administration, AZD9291 3 mg/kg, IN10018 25 mg/kg, combination 3+25 mg/kg) is 5/5. For the same compound, in series [2], the “tumor growth inhibition compared with the blank control group” value is on record as “obvious tumor growth inhibition”, the “Tumor volume on day 0” value came to 148.6 ± 59.6 mm^3, the TGI worked out at 107.7% and the “Tumor volume on day 32” value is given as 20.3±4.7 mm^3. The “Tumor volume on day 37” value in series [2] is given as 17.0±6.7 mm^3. The “cell status observed under microscope” value in the series with lung cancer KPL cells is reported as “poor cell status”.
